Laboratory results reported in the OligoGym collection.
After the bases stand the sugars from the 5' end (letter, count) and the backbone: PS all phosphorothioate, else s phosphorothioate and o phosphodiester by linkage. Methylation of C is not given here. e = 2'-O-(2-methoxyethyl) (MOE); k = constrained ethyl (cEt); d = 2'-deoxy (DNA); m = 2'-O-methyl

Biological target: HSD17B13
Conditions: ASO, HepaRG

| Sequence | target mRNA inhibition (1 µM) | also measured |
| --- | --- | --- |
| AAAAAGCTTATCGAGT (sugars k3 d10 k3, PS) | 8% | – |
| AAAAGGTTATCATGGG (sugars k3 d10 k3, PS) | 49% | – |
| AAAATAGAGTCGGTCA (sugars k3 d9 k3 e1, PS) | 65% | – |
| AAAATAGAGTCGGTCA (sugars k3 d10 k3, PS) | 71% | target mRNA inhibition (0.02 µM): 28%; target mRNA inhibition (0.078 µM): 27%; target mRNA inhibition (0.313 µM): 51%; target mRNA inhibition (1.25 µM): 69%; target mRNA inhibition (5 µM): 91% |
| AAAATGTCCTAGGATG (sugars k3 d10 k3, PS) | 0% | – |
| AAACAAGAGGATAGTC (sugars k3 d1 m1 d8 k3, PS) | 53% | – |
| AAACATGGATGTTAGG (sugars k3 d10 k3, PS) | 56% | – |
| AAACTAGTGGTAATGG (sugars k3 d10 k3, PS) | 47% | – |
| AAACTTCACCAACGAC (sugars k3 d10 k3, PS) | 27% | – |
| AAAGACTTTGAGACTC (sugars k3 d9 k3 e1, PS) | 67% | – |
| AAAGACTTTGAGACTC (sugars kkdddddddddkekek, PS) | 45% | – |
| AAAGATCTGGCCAGTT (sugars k3 d10 k3, PS) | 3% | – |
| AAAGATGTACACTGAC (sugars k3 d10 k3, PS) | 57% | – |
| AAAGTCAGTATCCCCT (sugars k3 d10 k3, PS) | 77% | target mRNA inhibition (0.02 µM): 7%; target mRNA inhibition (0.078 µM): 21%; target mRNA inhibition (0.313 µM): 40%; target mRNA inhibition (1.25 µM): 79%; target mRNA inhibition (5 µM): 82% |
| AAAGTTAATAGGACTA (sugars k3 d10 k3, PS) | 12% | – |
| AAATAGAGTCGGTCAC (sugars k3 d10 k3, PS) | 59% | – |
| AAATATAGAGGGTCCA (sugars k3 d10 k3, PS) | 0% | – |
| AAATATGTCCAGGTTG (sugars k3 d9 k3 e1, PS) | 74% | target mRNA inhibition (0.02 µM): 3%; target mRNA inhibition (0.078 µM): 0%; target mRNA inhibition (0.313 µM): 16%; target mRNA inhibition (1.25 µM): 60%; target mRNA inhibition (5 µM): 88% |
| AAATATGTCCAGGTTG (sugars k3 d10 k3, PS) | 68% | – |
| AAATGTCTTGGTAATC (sugars k3 d10 k3, PS) | 30% | – |
| AAATTACTCCGTTCTG (sugars k3 d10 k3, PS) | 28% | – |
| AAATTAGAGGCCCAGG (sugars k3 d10 k3, PS) | 43% | – |
| AACAAGAGGATAGTCC (sugars k3 d10 k3, PS) | 54% | – |
| AACAAGATTAGTCTTG (sugars k3 d10 k3, PS) | 40% | – |
| AACAATCTCCCCAGCC (sugars k3 d10 k3, PS) | 59% | – |

| Sequence | target mRNA inhibition (1 µM) | also measured |
| --- | --- | --- |
| AACAGTCTTAAACCTT (sugars k3 d10 k3, PS) | 82% | – |
| AACAGTCTTAAACCTT (sugars kkdddddddddkekek, PS) | 37% | – |
| AACATCTCTGGGACCA (sugars k3 d10 k3, PS) | 74% | target mRNA inhibition (0.02 µM): 0%; target mRNA inhibition (0.078 µM): 11%; target mRNA inhibition (0.313 µM): 44%; target mRNA inhibition (1.25 µM): 64%; target mRNA inhibition (5 µM): 81% |
| AACCAATTATATGAGG (sugars k3 d10 k3, PS) | 38% | – |
| AACCTTGAATGAGTGG (sugars k3 d10 k3, PS) | 50% | – |
| AACTAGAACTCCCAAC (sugars k3 d10 k3, PS) | 0% | – |
| AACTGAGCTAGACAAT (sugars k3 d10 k3, PS) | 44% | – |
| AAGAATAGGAGAGTCT (sugars k3 d10 k3, PS) | 70% | – |
| AAGACATTCTAGCCTG (sugars k3 d10 k3, PS) | 63% | – |
| AAGAGCCAAACTGCTA (sugars k3 d10 k3, PS) | 63% | target mRNA inhibition (0.02 µM): 0%; target mRNA inhibition (0.078 µM): 0%; target mRNA inhibition (0.313 µM): 11%; target mRNA inhibition (1.25 µM): 46%; target mRNA inhibition (5 µM): 66% |
| AAGAGTCAGTATCCTC (sugars k3 d1 m1 d8 k3, PS) | 55% | – |
| AAGAGTCAGTATCCTC (sugars k3 d9 k3 e1, PS) | 67% | – |
| AAGATCGGCTGGATAT (sugars k3 d10 k3, PS) | 1% | – |
| AAGCTTATCGAGTTTA (sugars k3 d10 k3, PS) | 26% | – |
| AAGGAAGAGGCTAGGG (sugars k3 d10 k3, PS) | 57% | – |
| AAGGAGCCAGTTATGA (sugars k3 d10 k3, PS) | 57% | – |
| AAGGAGTATGACAACT (sugars k3 d10 k3, PS) | 28% | – |
| AAGGCCTGAAGTTCTG (sugars k3 d10 k3, PS) | 5% | – |
| AAGTATTCCATCTATC (sugars k3 d10 k3, PS) | 52% | – |
| AAGTTAGCCCCCAGGA (sugars kkdddddddddkekek, PS) | 12% | – |
| AAGTTAGTATAGTTAT (sugars k3 d10 k3, PS) | 20% | – |
| AAGTTATTATCCCCAC (sugars k3 d10 k3, PS) | 60% | – |
| AAGTTCTGATGTCAGA (sugars k3 d10 k3, PS) | 7% | – |
| AATAACTGTTCTCCCC (sugars k3 d10 k3, PS) | 20% | – |
| AATAATAGCTCTATTG (sugars k3 d1 m1 d8 k3, PS) | 16% | – |

| Sequence | target mRNA inhibition (1 µM) | also measured |
| --- | --- | --- |
| AATAATAGCTCTATTG (sugars k3 d10 k3, PS) | 0% | – |
| AATAATGGGCAGAGCT (sugars k3 d10 k3, PS) | 43% | – |
| AATACAGGCCATAATC (sugars k3 d10 k3, PS) | 16% | – |
| AATAGCCAGTACAGTT (sugars k3 d9 k3 e1, PS) | 61% | – |
| AATATAGCCCTTTCCC (sugars k3 d10 k3, PS) | 44% | – |
| AATATCCCACAGAACC (sugars k3 d10 k3, PS) | 60% | – |
| AATATGGGATGAGGTA (sugars k3 d10 k3, PS) | 53% | – |
| AATATTGAGGCACTGG (sugars kkdddddddddkekek, PS) | 29% | – |
| AATGCTACTTGAACAG (sugars k3 d9 k3 e1, PS) | 50% | – |
| AATGTATCTTATAAGA (sugars k3 d10 k3, PS) | 10% | – |
| AATGTCTTGGTAATCT (sugars k3 d10 k3, PS) | 20% | – |
| AATTAAGATGTCCAGG (sugars k3 d10 k3, PS) | 13% | – |
| AATTCACCTTGACTAA (sugars k3 d10 k3, PS) | 9% | – |
| AATTCATAAGTAGTCT (sugars k3 d10 k3, PS) | 28% | – |
| AATTGATACACCAATG (sugars k3 d1 m1 d8 k3, PS) | 40% | – |
| AATTGATACACCAATG (sugars k3 d9 k3 e1, PS) | 53% | – |
| AATTGATACACCAATG (sugars k3 d10 k3, PS) | 55% | – |
| AATTTTCAGATCCCGT (sugars k3 d10 k3, PS) | 74% | – |
| ACAAGTAAGGTAAAGT (sugars k3 d10 k3, PS) | 38% | – |
| ACAATACAGGATAGAG (sugars k3 d10 k3, PS) | 23% | – |
| ACAAUATGGGATGAGG (sugars k3 d1 m1 d8 k3, PS) | 70% | target mRNA inhibition (0.02 µM): 0%; target mRNA inhibition (0.078 µM): 2%; target mRNA inhibition (0.313 µM): 0%; target mRNA inhibition (1.25 µM): 48%; target mRNA inhibition (5 µM): 59% |
| ACACTAATGAATCATG (sugars k3 d10 k3, PS) | 7% | – |
| ACAGACTGTTGAGCTC (sugars k3 d10 k3, PS) | 53% | – |
| ACAGATTGGAATGCTA (sugars k3 d1 m1 d8 k3, PS) | 70% | – |
| ACAGATTGGAATGCTA (sugars k3 d9 k3 e1, PS) | 68% | target mRNA inhibition (0.02 µM): 18%; target mRNA inhibition (0.078 µM): 21%; target mRNA inhibition (0.313 µM): 38%; target mRNA inhibition (1.25 µM): 62%; target mRNA inhibition (5 µM): 76% |

| Sequence | target mRNA inhibition (1 µM) | also measured |
| --- | --- | --- |
| ACAGCATCAAGACATT (sugars k3 d10 k3, PS) | 53% | – |
| ACAGGATAGAGCACAT (sugars k3 d10 k3, PS) | 44% | – |
| ACAGTAAAATTATGCC (sugars kkdddddddddkekek, PS) | 28% | – |
| ACAGUAAAATTATGCC (sugars k3 d1 m1 d8 k3, PS) | 24% | – |
| ACATACCACTCTTCTC (sugars k3 d10 k3, PS) | 35% | – |
| ACATAGGCTTAGTGTA (sugars k3 d10 k3, PS) | 0% | – |
| ACATUGCAGTTATTAG (sugars k3 d1 m1 d8 k3, PS) | 26% | – |
| ACCAAACTTCCAGCAG (sugars k3 d9 k3 e1, PS) | 36% | – |
| ACCAAGAGGGTTTTTA (sugars k3 d10 k3, PS) | 7% | – |
| ACCCTTAACAAACCTC (sugars k3 d10 k3, PS) | 36% | – |
| ACCGCGCTTATTAATA (sugars k3 d10 k3, PS) | 4% | – |
| ACCTAATAACTACATG (sugars k3 d10 k3, PS) | 0% | – |
| ACCTCTAAGTTAGCCC (sugars k3 d10 k3, PS) | 28% | – |
| ACGAAGCCTGAATGCC (sugars k3 d10 k3, PS) | 52% | – |
| ACGACTCCAAGTAGGA (sugars k3 d10 k3, PS) | 24% | – |
| ACGACTTCATCTGTCT (sugars k3 d10 k3, PS) | 8% | – |
| ACGATGTGGCCATGAT (sugars k3 d10 k3, PS) | 52% | – |
| ACGGTGATCAAATGTA (sugars k3 d9 k3 e1, PS) | 41% | – |
| ACGGUGATCAAATGTA (sugars k3 d1 m1 d8 k3, PS) | 18% | – |
| ACTAACCAATTATATG (sugars k3 d10 k3, PS) | 6% | – |
| ACTATCAGAACAGTTC (sugars k3 d10 k3, PS) | 62% | – |
| ACTCCAAGTAGGAGTA (sugars k3 d10 k3, PS) | 0% | – |
| ACTCTATAATAAGGTA (sugars k3 d10 k3, PS) | 42% | – |
